The values that follow come from patent publication US20230346820A1, “METHODS AND COMPOSITIONS FOR THE TREATMENT OF SARS-COV-2” (priority 2020, published 2023).

Data set [1] has as its system SARS-CoV-2. Nature of the data set: microbe, parasite or virus in culture. Particulars: Severe acute respiratory syndrome coronavirus 2, Calu-3, 48 h, read-out: Calu-3 CoV-2 EC50 [μM].
The nature of data set [2]: in vitro. Particulars: human.
The subject of data set [3] is SARS-CoV-2.
A short description of data set [4]: in vitro. Particulars: human. This is another data set of the same source.
Description: To assess cell viability, 2 μL of 50% Cell-Titer Glo (Promega No G7573) diluted in water was added to the cells and luminescence measured on an EnVision Plate Reader (Perkin Elmer).
Data analysis. […] Primary in vitro screen and the host cell cytotoxicity counter screen data were uploaded to Genedata Screener, Version 16.0.3-Standard. […] For the uninfected host cell cytotoxicity counter screens, 40 μM puromycin (Sigma) was used as the positive (inhibitory) control in HeLa-ACE2, HepG2 and HEK293T cells, and 30 μM puromycin (Sigma) was used as the positive (inhibitory) control for Calu-3 cells. For dose response experiments compounds were tested in technical triplicates on different assay plates and dose curves were fitted with the four parameter Hill Equation. Technical replicate data were analyzed using median condensing. Geometric means and geometric standard deviations are reported for compound activities (EC50s and CC50s) obtained in multiple independent biological experiments. […] Geometric means were calculated by computing the logarithm (base 10) of all values, calculating the mean of these logarithms, and taking the antilog of that mean. Geometric standard deviations were computed by taking the standard deviation of the log-transformed individual values and taking the antilog of that standard deviation. The geometric standard deviation is a unitless ratio and reported as ×÷ instead of +/−.
Data set [5] deals with SARS-CoV-2. Nature of the data set: microbe, parasite or virus in culture.
For data set [6], the system named is SARS-CoV-2. The note with it: Table 4.
The subject of data set [7] is HeLa-ACE2 cells. Nature of the data set: cells. Format: cell-based, human. The note with it: Homo sapiens, HeLa-ACE2, read-out: HeLa-ACE-2 EC50 [μM] (Geomeans, n ≥ 2).
The mark [8] stands for this setting: HeLa-ACE2 Uninfected Tox CC50 [μM], Table 4, aggregated data, Geomean, n = 3.
The mark [9] stands for this setting: Severe acute respiratory syndrome coronavirus 2, HeLa-ACE2, read-out: HeLa-ACE2 CoV-2 EC50 [μM], Table 4, aggregated data, Geomean, n = 3.
The mark [10] stands for this setting: CC50 [μM] (Geomeans, n ≥ 2 except where indicated: *n = 1).
Setting [11] is: HeLa-ACE2 Uninfected Tox CC50 [μM].
Setting [12] is: Severe acute respiratory syndrome coronavirus 2, HeLa-ACE2, 24 h, read-out: CoV-2 EC50 [μM] (Geomeans, n ≥ 2).
Setting [13] is: Severe acute respiratory syndrome coronavirus 2, HeLa-ACE2, read-out: HeLa-ACE2 CoV-2 EC50 [μM].

The structures appear in SMILES notation. Like-named read-outs stand apart in the source and are kept apart here.

In the case of `Nc1ncnc2c1ccn2[C@@H]1O[C@H](CO)[C@@H](O)[C@H]1O` [TUBERCIDIN], the EC50 in data set [1] worked out at 0.111 µM; in data set [5] (setting [9]), 0.183 µM. For the same molecule, the CC50 in data set [2] (setting [8]) is 0.557 µM; in data set [4] it was 1070 nM. In data set [3] (Table 4), the “HeLa-ACE2 SI CC50/CoV-2 EC50” value was 3.04. Moreover, in data set [6], the “Calu3 SI CC50/CoV-2 EC50” value came out at 9.68.

Turning to `Cn1c(C#N)ccc1-c1ccc2c(c1)C(C)(C)OC(=S)N2` [tanaproget], the EC50 in data set [1] is 2.44 µM; in data set [5] (setting [9]), 0.141 µM. The CC50 in data set [2] (setting [8]) is 0.128 µM; in data set [4], 19300 nM. In data set [3] (Table 4), the “HeLa-ACE2 SI CC50/CoV-2 EC50” value is recorded as 0.91. The “Calu3 SI CC50/CoV-2 EC50” value in data set [6] was 7.99.

As to `COc1ccc2c(c1)[C@]1(CC1c1ccc3c(/C=C/c4ccc(CN5C[C@@H](C)O[C@@H](C)C5)cc4)n[nH]c3c1)C(=O)N2` (some centres unmarked) [CFI-400945], the concentration for a half-maximal effect (EC50) in data set [7] is > 0.117 µM; in data set [1] it was 3.36 µM; in data set [5] (setting [12]), > 7 µM; in data set [5] (setting [13]), > 7 µM. Besides, the CC50 was 7.18 µM in data set [2] (setting [10]), 7.18 µM in data set [2] (setting [11]) and > 19800 nM in data set [4]. Moreover, in data set [3], the “HeLa-ACE2 CC50/CoV-2 EC50” value is reported as <1.02. Also, the “HeLa-ACE2 SI CC50/CoV-2 EC50” value in data set [3] was <1.02. The “Calu3 SI CC50/CoV-2 EC50” value in data set [6] was >5.88.

In the case of `Sc1ncnc2nc[nH]c12` [Mercaptopurine], the EC50 amounted to 0.197 µM in data set [1] and 3.57 µM in data set [5] (setting [9]). Besides, the values for the CC50 in data set [2] (setting [8]) and in data set [4] were 19.6 µM and 1370 nM, respectively. Moreover, the “HeLa-ACE2 SI CC50/CoV-2 EC50” value in data set [3] (Table 4) is given as 5.51. Also, the “Calu3 SI CC50/CoV-2 EC50” value in data set [6] turned out to be 6.95.

Consider `CCCCCCCCCCCCCC(=O)O[C@@H]1[C@@H](C)[C@@]2(O)[C@@H](C=C(CO)C[C@]3(O)C(=O)C(C)=C[C@@H]23)[C@@H]2C(C)(C)[C@]12OC(C)=O` [Phorbol 12-myristate 13-acetate], for which the values for the EC50 in data set [1] and in data set [5] (setting [9]) were 0.016 µM and 0.07 µM, respectively. Further, the values for the CC50 in data set [2] (setting [8]) and in data set [4] were 0.201 µM and 22500 nM, respectively. Further, the “HeLa-ACE2 SI CC50/CoV-2 EC50” value in data set [3] (Table 4) was 2.89. Further, the “Calu3 SI CC50/CoV-2 EC50” value in data set [6] was 1384.37.

With `CC[C@H]1CN2CCc3cc(OC)c(OC)cc3[C@@H]2C[C@@H]1C[C@H]1NCCc2cc(OC)c(OC)cc21` [Emetine], the results for the EC50 in data set [1] and in data set [5] (setting [9]) were 0.444 µM and 0.06 µM, respectively. Further, the figures for the CC50 in data set [2] (setting [8]) and in data set [4] were 0.34 µM and 8870 nM, respectively. In addition, the “HeLa-ACE2 SI CC50/CoV-2 EC50” value in data set [3] (Table 4) was found to be 5.66. Besides, the “Calu3 SI CC50/CoV-2 EC50” value in data set [6] is listed as 19.97.

For `N=C(N)c1ccc2cc(OC(=O)c3ccc(CNC(=O)CCCC(=O)O)o3)ccc2c1` [TO-195], the EC50 in data set [1] is 0.657 µM; in data set [5] (setting [9]), > 9.59 µM. For the same molecule, the values for the CC50 in data set [2] (setting [8]) and in data set [4] were > 39.8 µM and > 29900 nM, respectively. The “HeLa-ACE2 SI CC50/CoV-2 EC50” value in data set [3] (Table 4) is on record as >6. In addition, the “Calu3 SI CC50/CoV-2 EC50” value in data set [6] is recorded as >45.

In the case of `CC[C@H]1CN2CCc3cc(OC)c(OC)cc3[C@@H]2C[C@@H]1C[C@H]1NCCc2cc(O)c(OC)cc21` [Cephaeline], the EC50 in data set [1] was found to be 0.142 µM; in data set [5] (setting [13]), 0.017 µM. The molecule further registered a CC50 in data set [2] of 0.212 µM. For the same molecule, in data set [3] (Table 4), the “HeLa-ACE2 SI CC50/CoV-2 EC50” value was determined as 12.66. Moreover, in data set [4], the CC50 at 48 h was determined as 4960 nM. Also, in data set [6], the “Calu3 SI CC50/CoV-2 EC50” value is given as 34.84.

As for `C[C@@H]1C[C@@H]([C@H](O)CC2CC(=O)NC(=O)C2)C(=O)[C@@H](C)C1` [Cycloheximide], the values for the concentration giving a half-maximal response (EC50) in data set [1] and in data set [5] (setting [13]) were 0.195 µM and 0.634 µM, respectively. Besides, the CC50 in data set [2] came to 1.47 µM. Besides, the “HeLa-ACE2 SI CC50/CoV-2 EC50” value in data set [3] (Table 4) was found to be 2.32. The same molecule returned a CC50 at 48 h in data set [4] of 2440 nM. Also, the “Calu3 SI CC50/CoV-2 EC50” value in data set [6] was determined as 12.50.

Regarding `C[C@H]1O[C@@H](O[C@H]2[C@@H](O)C[C@@H](O[C@@H]3[C@@H](O)C[C@H](O[C@H]4CC[C@@]5(C)[C@H](CC[C@@H]6[C@@H]5C[C@@H](O)[C@]5(C)[C@@H](C7=CC(=O)OC7)CC[C@]65O)C4)O[C@@H]3C)O[C@@H]2C)C[C@H](O)[C@@H]1O` (stereo in doubt) [Digoxin], the EC50 was found to be 0.325 µM in data set [7], 0.17 µM in data set [1], 0.166 µM in data set [5] (setting [12]) and 0.166 µM in data set [5] (setting [13]). For the same molecule, the CC50 in data set [2] (setting [10]) is 0.12 µM; in data set [2] (setting [11]), 0.12 µM; in data set [4], > 5040 nM. The “HeLa-ACE2 CC50/CoV-2 EC50” value in data set [3] is given as 0.72. Besides, the “HeLa-ACE2 SI CC50/CoV-2 EC50” value in data set [3] came out at 0.72. In data set [6], the “Calu3 SI CC50/CoV-2 EC50” value is reported as >29.80.
